{"source": "BindingDB's records for patent US11807646", "about": "(Almac Discovery, 2023)", "data": [{"target": "T1, Ubiquitin carboxyl-terminal hydrolase 19 (Homo sapiens, UniProt O94966)", "T1 sequence (O94966 whole entry)": "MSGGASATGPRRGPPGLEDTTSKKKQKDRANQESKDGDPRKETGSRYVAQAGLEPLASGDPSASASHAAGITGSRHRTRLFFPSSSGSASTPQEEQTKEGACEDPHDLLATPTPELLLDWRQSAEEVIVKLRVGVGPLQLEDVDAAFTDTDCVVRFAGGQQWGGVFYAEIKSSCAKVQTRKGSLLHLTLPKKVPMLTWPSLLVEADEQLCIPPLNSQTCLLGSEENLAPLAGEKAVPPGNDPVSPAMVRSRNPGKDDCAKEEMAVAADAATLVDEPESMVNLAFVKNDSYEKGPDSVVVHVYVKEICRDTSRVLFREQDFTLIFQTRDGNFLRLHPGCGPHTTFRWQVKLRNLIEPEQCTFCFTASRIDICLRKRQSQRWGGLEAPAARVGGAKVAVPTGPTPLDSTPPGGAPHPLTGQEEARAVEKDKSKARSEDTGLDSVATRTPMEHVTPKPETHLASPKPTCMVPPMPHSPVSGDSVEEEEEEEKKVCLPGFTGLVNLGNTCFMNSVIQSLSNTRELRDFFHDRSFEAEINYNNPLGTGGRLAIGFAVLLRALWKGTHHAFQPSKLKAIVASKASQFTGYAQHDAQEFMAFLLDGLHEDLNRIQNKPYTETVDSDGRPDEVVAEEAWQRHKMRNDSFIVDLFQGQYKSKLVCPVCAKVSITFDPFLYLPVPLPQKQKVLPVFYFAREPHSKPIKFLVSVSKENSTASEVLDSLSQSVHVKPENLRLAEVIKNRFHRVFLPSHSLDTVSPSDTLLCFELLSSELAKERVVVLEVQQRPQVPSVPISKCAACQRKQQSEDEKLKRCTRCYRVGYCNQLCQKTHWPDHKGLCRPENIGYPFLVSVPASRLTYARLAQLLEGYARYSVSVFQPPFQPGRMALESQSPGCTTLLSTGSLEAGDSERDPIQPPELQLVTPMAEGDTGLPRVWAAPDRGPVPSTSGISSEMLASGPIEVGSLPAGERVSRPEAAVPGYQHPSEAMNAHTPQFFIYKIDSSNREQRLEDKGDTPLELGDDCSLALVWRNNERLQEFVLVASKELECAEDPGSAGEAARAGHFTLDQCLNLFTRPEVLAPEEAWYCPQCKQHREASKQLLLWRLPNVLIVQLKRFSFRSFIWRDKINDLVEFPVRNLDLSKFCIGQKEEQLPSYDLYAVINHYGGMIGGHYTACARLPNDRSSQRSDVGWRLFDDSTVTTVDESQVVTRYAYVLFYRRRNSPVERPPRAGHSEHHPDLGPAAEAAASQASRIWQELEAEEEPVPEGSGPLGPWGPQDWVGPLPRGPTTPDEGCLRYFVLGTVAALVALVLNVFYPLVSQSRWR", "assay": "Fluorescence Polarization (FP) Homogeneous Assay", "method": "Unless otherwise stated, all other reagents were purchased from Sigma. Enzymatic reactions were conducted in black flat bottom polystyrene 384-well plates (Nunc) and 30 μL total volume. […] Inhibitors were stored as 10 mM DMSO stocks in an inert environment (low humidity, dark, low oxygen, room temperature) using the Storage Pod System and serial dilutions were prepared in buffer just prior to the assay (from 200 μM to 2 pM, 8-18 data point curve). Following incubation at rt for 30 min, the enzymatic reactions were initiated by dispensing the Ub substrate (500 nM, 10 μL). FP was measured every 15 min over a period of 90 min (within the linear range of the assay) using a Synergy 4 plate reader (BioTek) exciting at 530 nm and measuring the amount of parallel and perpendicular light at 575 nm. The FP signal was subsequently normalized to the no compound control.", "units": {"IC50": "µM"}, "values": [{"smiles": "O=C1CN(c2ccccc2)CCN1CC1(O)CCN(C(=O)NCc2ccccc2)CC12CCCC2", "note": "(configuration not stated) [US11807646, Example 109]", "IC50": "< 0.5"}, {"smiles": "CS(C)(=O)=Nc1cn(CC2(O)CCN(C(=O)N3CCNC[C@H]3c3ccccc3)CC23CCCC3)c(=O)cc1-c1ccccc1", "note": "(some centres not stated) [US11807646, Example 191]", "IC50": "< 0.5"}, {"smiles": "O=C(N1CC[C@@](O)(Cn2ncc(-c3ccccc3)cc2=O)C2(CCCC2)C1)N1CCOC[C@H]1c1ccccc1", "note": "[US11807646, Example 280]", "IC50": "< 0.5"}, {"smiles": "CN(C)c1cc(=O)n(C[C@]2(O)CCN(C(=O)N3CCNC[C@H]3c3ccccc3)CC23CCCC3)cn1", "note": "[US11807646, Example 318]", "IC50": "< 0.5"}, {"smiles": "O=C(N1CCC(O)(Cn2cnc(-c3ccccc3)cc2=O)C2(CCOCC2)C1)N1CCNC[C@H]1c1ccccc1", "note": "(some centres not stated) [US11807646, Example 321]", "IC50": "< 0.5"}, {"smiles": "O=C(N1CC[C@@](O)(Cn2cc(F)c(-c3ccccc3)cc2=O)C2(CCCC2)C1)N1CCNC[C@H]1c1ccccc1", "note": "[US11807646, Example 331]", "IC50": "< 0.5"}, {"smiles": "O=C(N1CC[C@@](O)(Cn2cnc(-c3ccccc3)cc2=O)C2(CCCC2)C1)N1CC[S+]([O-])CC1c1ccccc1", "note": "(some centres not stated) [US11807646, Example 337]", "IC50": "< 0.5"}]}]}
